Reference: patent publication US20140349340A1, “MBTH-LIKE PROTEINS IN THE PRODUCTION OF SEMI SYNTHETIC ANTIBIOTICS” (DSM SINOCHEM PHARMACEUTICALS NETHERLANDS B.V., priority 2012, published 2014)

How the values were obtained:
Type in all cases: biochemical
[1] = PPi release assay, adenylation activity with D-phenylglycine; conditions: for Formed PPi: substrate D-PG 1 mM
Excerpt: (§1) These assays use inorganic pyrophosphatases to convert PPi produced during aminoacyl-AMP formation to orthophosphate (Pi). To measure Pi concentrations some of these assays use molybdate/malachite green reagent for colorimetric detection (McQuade et al. 2008) or, as used in the context of the present invention, a shift in absorbance maximum by conversion of 7-methyl-6-thioguanosine (MESG) by purine nucleoside phosphorylase (Ehmann D. E. et al. (Proc. Natl. Acad. Sci. (2000) 97, 2509-2514) or Daniel & Aldrich (Anal. Biochem. (2010) 404, 56-63)).
(§2) To determine the adenylation activity of the adenylation domains, the Enzchek® pyrophosphate assay kit (Life Technologies) was used as described by Ehmann D. E. et al. (Proc Nat Acad Science (2000) 97, 2509-2514) with small modifications. The reactions were performed 96 wells UV/Vis transparent plates (BD Falcon). The reaction mixture comprises 50 mM HEPES pH 8.0, 10 mM MgCl2, 5 mM ATP, 75 mM DTT, 0.03 U Inorganic Pyrophosphatase (IP), 1 U Purine Nucleoside Phosphorylase (PNP) and 0.2 mM MESG in a volume of 70 μl. Next 20 μl (around 0.5-2 μM final concentration) of purified A(T) domain, with or without co-purification of the MbtH like helper protein was added and the reaction was pre-incubated for 15 minutes at RT to reduce contaminating Pi. Following the pre-incubation, 10 μl of a 10 mM or 1 mM solution of the appropriate amino acid depending on the performed specificity determination was added to initiate the adenylation reaction and the absorbance at 360 nm was measured using a TECAN I Control spectrophotometer. Absorbance measurements were made every 5 to 10 min over a period of up to 240 min. A reaction with addition of 10 μl MilliQ water instead was used to determine and subtract the background absorbance. As substrates the following amino acids were used: D- or L-phenylalanine, D- or L-hydroxyphenylglycine, D- or L-phenylglycine, L-tryptophan, L-valine, L-cysteine, and L-leucine.

[2] = PPi release assay, adenylation activity with D-phenylalanine; conditions: substrate D-phenylalanine
Excerpt: as §1, §2

[3] = PPi release assay, adenylation activity with D-hydroxyphenylglycine
Excerpt: as §1, §2

[4] = PPi release assay, adenylation activity with L-phenylalanine; conditions: substrate L-phenylalanine
Excerpt: as §1, §2

[5] = PPi release assay, adenylation activity with L-hydroxyphenylglycine; conditions: for adenylation activity (absorption 360 nm, PPi release assay) / adenylation activity (PPi release assay): substrate L-hydroxyphenylglycine
Excerpt: as §1, §2

[6] = PPi release assay, adenylation activity with L-phenylglycine; conditions: for Formed PPi: substrate L-PG 1 mM
Excerpt: as §1, §2

[7] = co-purified with MbtH-like protein Tcp 13
[8] = co-purified with MbtH-like protein Tcp 17
[9] = co-purified with MbtH-like protein VMbtH
[10] = co-purified with MbtH-like protein Tcp13
[11] = protein alone, without MbtH-like protein
[12] = substrate D-HPG 0.1 mM, co-purified with MbtH-like protein Tcp 13
[13] = substrate D-HPG 0.1 mM, co-purified with MbtH-like protein Tcp 17
[14] = substrate D-HPG 0.1 mM, co-purified with MbtH-like protein VMbtH
[15] = substrate D-HPG 1 mM, co-purified with MbtH-like protein Tcp 13
[16] = substrate D-HPG 1 mM, co-purified with MbtH-like protein Tcp 17
[17] = substrate D-HPG 1 mM, co-purified with MbtH-like protein VMbtH
[18] = substrate D-hydroxyphenylglycine, co-purified with MbtH-like protein Tcp13
[19] = substrate D-hydroxyphenylglycine, protein alone, without MbtH-like protein
[20] = substrate L-HPG 0.1 mM, co-purified with MbtH-like protein Tcp 13
[21] = substrate L-HPG 0.1 mM, co-purified with MbtH-like protein Tcp 17
[22] = substrate L-HPG 0.1 mM, co-purified with MbtH-like protein VMbtH
[23] = substrate L-HPG 1 mM, co-purified with MbtH-like protein Tcp 13
[24] = substrate L-HPG 1 mM, co-purified with MbtH-like protein Tcp 17
[25] = substrate L-HPG 1 mM, co-purified with MbtH-like protein VMbtH
[26] = substrate D-hydroxyphenylglycine, co-purified with MbtH-like protein VMbtH
[27] = co-purified with Tcp13, or Tcp17 or VMbtH

| Substance | Formed PPi [1, 7] [mM/min/mM enzyme] | Formed PPi [1, 8] [mM/min/mM enzyme] | Formed PPi [1, 9] [mM/min/mM enzyme] | adenylation activity (absorption 360 nm, PPi release assay) [2, 10] | adenylation activity (absorption 360 nm, PPi release assay) [2, 11] | Formed PPi [3, 12] [mM/min/mM enzyme] | Formed PPi [3, 13] [mM/min/mM enzyme] | Formed PPi [3, 14] [mM/min/mM enzyme] | Formed PPi [3, 15] [mM/min/mM enzyme] | Formed PPi [3, 16] [mM/min/mM enzyme] | Formed PPi [3, 17] [mM/min/mM enzyme] | adenylation activity (absorption 360 nm, PPi release assay) [3, 18] | adenylation activity (absorption 360 nm, PPi release assay) [3, 19] | adenylation activity (absorption 360 nm, PPi release assay) [4, 10] | adenylation activity (absorption 360 nm, PPi release assay) [4, 11] | Formed PPi [5, 20] [mM/min/mM enzyme] | Formed PPi [5, 21] [mM/min/mM enzyme] | Formed PPi [5, 22] [mM/min/mM enzyme] | Formed PPi [5, 23] [mM/min/mM enzyme] | adenylation activity (absorption 360 nm, PPi release assay) [5, 11] | further results |
| --- | --- | --- | --- | --- | --- | --- | --- | --- | --- | --- | --- | --- | --- | --- | --- | --- | --- | --- | --- | --- | --- |
| Tcp9_M1_AT: purified adenylation thiolation didomain of Tcp9 (SEQ ID NO: 1 plus adjacent thiolation domain), MBP fusion, His-tag | 0.05 | 0.05 | 0.07 | no activity | No adenylation activity | 2.07 | 1.71 | 3.72 | 5.28 | 4.63 | 8.44 | clear adenylation activity | No adenylation activity | no activity | No adenylation activity | 1.18 | 1.20 | 1.23 | 1.16 | No adenylation activity | Formed PPi [5, 24]: 1.34 mM/min/mM enzyme; Formed PPi [5, 25]: 1.40 mM/min/mM enzyme; adenylation activity (absorption 360 nm, PPi release assay) [5, 10]: clear adenylation activity; Formed PPi [6, 7]: 1.32 mM/min/mM enzyme; Formed PPi [6, 8]: 1.44 mM/min/mM enzyme; Formed PPi [6, 9]: 2.32 mM/min/mM enzyme |
| Veg8_M1_A: purified adenylation domain of Veg8 module M1 (SEQ ID NO: 6), maltose binding protein fusion, His-tag; uncultured soil bacterium | 0.01 | 0.02 | 0.02 | no activity | no activity | 0.14 | 0.17 | 0.18 | 0.92 | 1.03 | 1.39 | clear adenylation activity | no activity | no activity | no activity | 0.56 | 0.70 | 0.61 | 0.59 | very minor adenylation activity | Formed PPi [5, 24]: 0.64 mM/min/mM enzyme; Formed PPi [5, 25]: 0.61 mM/min/mM enzyme; adenylation activity (absorption 360 nm, PPi release assay) [5, 10]: clear adenylation activity; Formed PPi [6, 7]: 0.17 mM/min/mM enzyme; Formed PPi [6, 8]: 0.14 mM/min/mM enzyme; Formed PPi [6, 9]: 0.20 mM/min/mM enzyme |
| Dbv25_M1_A: purified adenylation domain of Dbv25 module M1 (SEQ ID NO: 2); Nonomuraea sp. ATCC 39727 | – | – | – | – | No adenylation activity | – | – | – | – | – | – | – | No adenylation activity | – | No adenylation activity | – | – | – | – | No adenylation activity | adenylation activity (absorption 360 nm, PPi release assay) [2, 9]: no activity; adenylation activity (absorption 360 nm, PPi release assay) [3, 26]: clear adenylation activity; adenylation activity (absorption 360 nm, PPi release assay) [4, 9]: no activity; adenylation activity (absorption 360 nm, PPi release assay) [5, 9]: clear adenylation activity |
| StaA_M1_A: purified adenylation domain of StaA module M1 (SEQ ID NO: 3); Streptomyces toyocaensis | – | – | – | – | No adenylation activity | – | – | – | – | – | – | – | No adenylation activity | – | No adenylation activity | – | – | – | – | No adenylation activity | adenylation activity (absorption 360 nm, PPi release assay) [2, 9]: no activity; adenylation activity (absorption 360 nm, PPi release assay) [3, 26]: clear adenylation activity; adenylation activity (absorption 360 nm, PPi release assay) [4, 9]: no activity; adenylation activity (absorption 360 nm, PPi release assay) [5, 9]: clear adenylation activity |
| Teg7_M1_A: purified adenylation domain of Teg7 module M1 (SEQ ID NO: 27); uncultured soil bacterium | – | – | – | – | No adenylation activity | – | – | – | – | – | – | – | No adenylation activity | – | No adenylation activity | – | – | – | – | No adenylation activity | adenylation activity (PPi release assay) ([1]; substrate D-phenylglycine, co-purified with Tcp13, or Tcp17 or VMbtH): no adenylation activity; adenylation activity (PPi release assay) [2, 27]: no adenylation activity; adenylation activity (PPi release assay) ([3]; substrate D-hydroxyphenylglycine, co-purified with Tcp13, or Tcp17 or VMbtH): no adenylation activity; adenylation activity (PPi release assay) [4, 27]: no adenylation activity; adenylation activity (PPi release assay) ([5]; co-purified with MbtH-like protein TMbtH): the same specificity; adenylation activity (PPi release assay) [5, 27]: no adenylation activity; adenylation activity (PPi release assay) ([6]; substrate L-phenylglycine, co-purified with Tcp13, or Tcp17 or VMbtH): no adenylation activity |
